# Measured values reported in PubChem BioAssay AID330 (DTP/NCI, 2004).
# “And” between values parts separate entries of the source, which are not always exact repeats. Equal values may be shown once. Inconclusive results and toxic doses are left out.
# Tested on: P388 leukemia ip, CD2F1 mice, survival T/C
# Assay: NCI In Vivo Anticancer Drug Screen. Data for tumor model P388 Leukemia (intraperitoneal) in CD2F1 (CDF1) mice
# Details: endpoint: median survival time, higher = longer survival
# In short: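 Mice carrying the transplanted tumor received test compound or vehicle. Survival was recorded in each group, and the value is the treated-group measurement divided by that of the vehicle-treated control group.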
# [1] = dose: 50.0 mg/kg/injection, schedule: Q01DX005 (ip), vehicle: saline
# [2] = dose: 100.0 mg/kg/injection, schedule: Q01DX005 (ip), vehicle: saline
# [3] = dose: 200.0 mg/kg/injection, schedule: Q01DX005 (ip), vehicle: saline
# [4] = dose: 50.0 mg/kg/injection, schedule: Q01DX005 (ip), vehicle: saline with Tween-80
# [5] = dose: 100.0 mg/kg/injection, schedule: Q01DX005 (ip), vehicle: saline with Tween-80
# [6] = dose: 200.0 mg/kg/injection, schedule: Q01DX005 (ip), vehicle: saline with Tween-80
# [7] = dose: 60.0 mg/kg/injection, schedule: Q01DX005 (ip), vehicle: saline with Tween-80
# [8] = dose: 120.0 mg/kg/injection, schedule: Q01DX005 (ip), vehicle: saline with Tween-80
# [9] = dose: 240.0 mg/kg/injection, schedule: Q01DX005 (ip), vehicle: saline with Tween-80
# [10] = dose: 100.0 mg/kg/injection, schedule: Q04DX002 (ip), vehicle: saline with Tween-80
# [11] = dose: 200.0 mg/kg/injection, schedule: Q04DX002 (ip), vehicle: saline with Tween-80
# [12] = dose: 50.0 mg/kg/injection, schedule: Q04DX003 (ip), vehicle: saline with Tween-80
# [13] = dose: 100.0 mg/kg/injection, schedule: Q04DX003 (ip), vehicle: saline with Tween-80
# [14] = dose: 200.0 mg/kg/injection, schedule: Q04DX003 (ip), vehicle: saline with Tween-80
# [15] = dose: 400.0 mg/kg/injection, schedule: Q04DX003 (ip), vehicle: saline with Tween-80
# [16] = dose: 50.0 mg/kg/injection, schedule: Q01DX005 (ip), vehicle: Klucel (hydroxypropylcellulose) (HPC)
# [17] = dose: 100.0 mg/kg/injection, schedule: Q01DX005 (ip), vehicle: Klucel (hydroxypropylcellulose) (HPC)
# [18] = dose: 200.0 mg/kg/injection, schedule: Q01DX005 (ip), vehicle: Klucel (hydroxypropylcellulose) (HPC)
smiles,measurement,setting,value
NC(=O)/C=C/C(=O)NC(=O)Cc1ccccc1,T/C,"dose: 1.5 mg/kg/injection, schedule: Q01DX009 (ip), vehicle: saline with Tween-80",109 % of control
same,T/C,"dose: 3.0 mg/kg/injection, schedule: Q01DX009 (ip), vehicle: saline with Tween-80",110 % of control and 119 % of control
same,T/C,"dose: 6.0 mg/kg/injection, schedule: Q01DX009 (ip), vehicle: saline with Tween-80",109 % of control and 116 % of control
NC(N)=NCC[C@H](N)C(=O)O,T/C,[1],104 % of control
same,T/C,[2],104 % of control
same,T/C,[3],97 % of control
c1ccc2c(c1)NC(c1ccc3c(c1)Sc1cc(C4Nc5ccccc5N4)ccc1O3)N2,T/C,[4],95 % of control
same,T/C,[5],102 % of control
same,T/C,[6],100 % of control
CS(=O)(=O)Oc1ccc([N+](=O)[O-])cc1,T/C,"dose: 50.0 mg/kg/injection, schedule: Q01DX009 (ip), vehicle: Klucel (hydroxypropylcellulose) (HPC)",98 % of control
same,T/C,"dose: 100.0 mg/kg/injection, schedule: Q01DX009 (ip), vehicle: Klucel (hydroxypropylcellulose) (HPC)",107 % of control
same,T/C,"dose: 200.0 mg/kg/injection, schedule: Q01DX009 (ip), vehicle: Klucel (hydroxypropylcellulose) (HPC)",114 % of control
O=S(=O)(N/N=C/c1ccncc1)c1ccccc1,T/C,"dose: 12.5 mg/kg/injection, schedule: Q01DX009 (ip), vehicle: other",110 % of control and 121 % of control
same,T/C,"dose: 25.0 mg/kg/injection, schedule: Q01DX009 (ip), vehicle: other",116 % of control
same,T/C,"dose: 100.0 mg/kg/injection, schedule: Q01DX009 (ip), vehicle: other",157 % of control
COC(=O)C(C#N)=C(Cl)Cl,T/C,"dose: 1.56 mg/kg/injection, schedule: Q01DX005 (ip), vehicle: Klucel (hydroxypropylcellulose) (HPC)",98 % of control
same,T/C,"dose: 3.12 mg/kg/injection, schedule: Q01DX005 (ip), vehicle: Klucel (hydroxypropylcellulose) (HPC)",94 % of control
same,T/C,"dose: 6.25 mg/kg/injection, schedule: Q01DX005 (ip), vehicle: Klucel (hydroxypropylcellulose) (HPC)",93 % of control
O=C1CC2COc3ccccc3C2=NN1c1ccccc1 (stereo not given),T/C,[7],105 % of control
same,T/C,[8],94 % of control
same,T/C,[9],91 % of control
N#CC(c1ccccc1)c1cnccn1 (stereo not given),T/C,"dose: 25.0 mg/kg/injection, schedule: Q01DX005 (ip), vehicle: saline with Tween-80",102 % of control
same,T/C,[4],100 % of control
CCc1ccc2c(c1)C(O)(C#Cc1ccccc1)c1cc(CC)ccc1C2(O)C#Cc1ccccc1 (stereo not given),T/C,[10],93 % of control
same,T/C,[11],93 % of control
same,T/C,"dose: 400.0 mg/kg/injection, schedule: Q04DX002 (ip), vehicle: saline with Tween-80",93 % of control
CC(=O)Nn1c(N)nc2cc(C)ccc21,T/C,"dose: 200.0 mg/kg/injection, schedule: Q01DX001 (ip), vehicle: saline",98 % of control
same,T/C,"dose: 400.0 mg/kg/injection, schedule: Q01DX001 (ip), vehicle: saline",93 % of control
NC(=O)C1CCCN1C(=O)/C=C\c1ccccc1 (stereo not given),T/C,[7],109 % of control
same,T/C,[8],112 % of control
same,T/C,[9],101 % of control
CC(CC(=O)O)C(C(=O)O)C(=O)O (stereo not given),T/C,[1],104 % of control
same,T/C,[2],101 % of control
O=C(O)/C=C(\Br)C(=O)O,T/C,"dose: 100.0 mg/kg/injection, schedule: Q04DX002 (ip), vehicle: saline",95 % of control
same,T/C,"dose: 200.0 mg/kg/injection, schedule: Q04DX002 (ip), vehicle: saline",90 % of control
Nc1nc2n(n1)C(=O)C(=O)N2,T/C,[12],100 % of control
same,T/C,[13],106 % of control
same,T/C,[14],103 % of control
same,T/C,[15],103 % of control
COc1ccc(OC)c(C2N(Cc3ccccc3N(C)C)CCCN2Cc2ccccc2N(C)C)c1,T/C,[12],91 % of control
same,T/C,[13],87 % of control
COC(=O)C1=C(C(=O)OC)C2C=CC1C(=O)N2/C=C/c1ccccc1 (stereo not given),T/C,[13],102 % of control
same,T/C,[15],117 % of control
COCCC(=O)SCc1ccccc1,T/C,[4],103 % of control
same,T/C,[5],96 % of control
same,T/C,[6],107 % of control
CCOC(=O)C1=C(N)N(S(=O)(=O)c2ccc(C)cc2)CCC(C(=O)OC)=C1,T/C,[8],119 % of control
same,T/C,[9],108 % of control
NNC12CCC(c3ccccc31)c1ccccc12,T/C,[12],95 % of control
same,T/C,[13],110 % of control
same,T/C,[14],110 % of control
O=c1oc2cc(O)ccc2cc1-c1nc2ccccc2o1,T/C,[7],97 % of control
same,T/C,[8],98 % of control
same,T/C,[9],96 % of control
CC1CN(C(C)(C)C)CO1 (stereo not given),T/C,"dose: 12.5 mg/kg/injection, schedule: Q01DX005 (ip), vehicle: saline",112 % of control and 88 % of control
same,T/C,"dose: 25.0 mg/kg/injection, schedule: Q01DX005 (ip), vehicle: saline",107 % of control
same,T/C,[1],114 % of control and 117 % of control and 119 % of control
same,T/C,[2],119 % of control and 120 % of control
same,T/C,[3],107 % of control
NC(=O)c1ncn(C2OC(COP(=O)(O)O)C(O)C2O)n1 (stereo not given),T/C,"dose: 50.0 mg/kg/injection, schedule: Q01DX009 (ip), vehicle: saline",104 % of control and 106 % of control
same,T/C,"dose: 100.0 mg/kg/injection, schedule: Q01DX009 (ip), vehicle: saline",107 % of control and 109 % of control
same,T/C,"dose: 200.0 mg/kg/injection, schedule: Q01DX009 (ip), vehicle: saline",113 % of control and 120 % of control
COC(=O)c1n[nH]n(Cc2cccs2)c1=O (tested in a mixture with another compound),T/C,[16],108 % of control
same,T/C,[17],103 % of control
same,T/C,[18],97 % of control
CC(=O)NCCn1nc(-c2ccc(Cl)cc2)c(-c2ccc(Cl)cc2)c(C(C)=O)c1=O,T/C,"dose: 6.25 mg/kg/injection, schedule: Q01DX005 (ip), vehicle: saline with Tween-80",103 % of control
same,T/C,"dose: 12.5 mg/kg/injection, schedule: Q01DX005 (ip), vehicle: saline with Tween-80",103 % of control
COc1cc2c(c(OC)c1OC)-c1cc3c(cc1CC1COC(=O)C1C2)OCO3 (stereo not given),T/C,"dose: 2.5 mg/kg/injection, schedule: Q04DX002 (ip), vehicle: saline with Tween-80",97 % of control and 96 % of control and 102 % of control
same,T/C,"dose: 5.0 mg/kg/injection, schedule: Q04DX002 (ip), vehicle: saline with Tween-80",95 % of control [middle of 6 runs]
same,T/C,"dose: 10.0 mg/kg/injection, schedule: Q04DX002 (ip), vehicle: saline with Tween-80",101 % of control [middle of 6 runs]
same,T/C,"dose: 12.5 mg/kg/injection, schedule: Q01DX009 (ip), vehicle: saline with Tween-80",100 % of control
same,T/C,"dose: 20.0 mg/kg/injection, schedule: Q04DX002 (ip), vehicle: saline with Tween-80",96 % of control and 104 % of control
same,T/C,"dose: 25.0 mg/kg/injection, schedule: Q01DX009 (ip), vehicle: saline with Tween-80",97 % of control
same,T/C,"dose: 25.0 mg/kg/injection, schedule: Q04DX002 (ip), vehicle: saline with Tween-80",100 % of control
same,T/C,"dose: 50.0 mg/kg/injection, schedule: Q01DX009 (ip), vehicle: saline with Tween-80",95 % of control
same,T/C,"dose: 50.0 mg/kg/injection, schedule: Q04DX002 (ip), vehicle: saline with Tween-80",104 % of control
same,T/C,[10],87 % of control and 119 % of control
same,T/C,[11],91 % of control
Cc1ccc2c(c1)C1(SCC(=O)N1c1ccc(Cl)cc1)C(=O)N2 (stereo not given),T/C,[7],101 % of control
same,T/C,[8],100 % of control
same,T/C,[9],100 % of control
Cn1c(C=O)cc2c(Cl)nccc21,T/C,[16],103 % of control
same,T/C,[17],103 % of control
same,T/C,[18],101 % of control
Nc1n[nH]c(CCCCc2nc(N)n[nH]2)n1,T/C,"dose: 60.0 mg/kg/injection, schedule: Q01DX005 (ip), vehicle: Klucel (hydroxypropylcellulose) (HPC)",97 % of control
same,T/C,"dose: 120.0 mg/kg/injection, schedule: Q01DX005 (ip), vehicle: Klucel (hydroxypropylcellulose) (HPC)",99 % of control
same,T/C,"dose: 240.0 mg/kg/injection, schedule: Q01DX005 (ip), vehicle: Klucel (hydroxypropylcellulose) (HPC)",98 % of control
Cc1cc(NCCCCCCNc2cc(C)[n+](C)c3ccccc23)c2ccccc2[n+]1C,T/C,"dose: 3.12 mg/kg/injection, schedule: Q01DX005 (ip), vehicle: suspension in saline",101 % of control
same,T/C,"dose: 6.25 mg/kg/injection, schedule: Q01DX005 (ip), vehicle: suspension in saline",106 % of control
same,T/C,"dose: 12.5 mg/kg/injection, schedule: Q01DX005 (ip), vehicle: suspension in saline",115 % of control
